# Results from PMC8359396, “Pharmacological validation of TDO as a target for Parkinson’s disease” (The Febs Journal, 2021).
# Columns and labels:
# mouse TDO (mTDO) = mouse TDO (mTDO) (Mus musculus, UniProt P48776); assay: TDO biochemical assay (NFK Green), mTDO
# TDO activity in vivo = assay: Trp and Kyn levels in plasma and brain of the PK studies (LC‐MS/MS); set-up: species or system male C57BL/6NCrl mice; conditions: mice, single p.o. 100 mg·kg^−1
# SW48 (hTDO) = SW48 (hTDO) (Homo sapiens, UniProt P48775); assay: cell-based
# [1] = tested on: rotenone‐induced mouse model of PD; assay: Microglia (Iba1) volume and occupied space in substantia nigra, iDISCO; conditions: highest dose (100 mg·kg^−1); P < 0.05
# [2] = biological target: hTDO2‐overexpressing HEK‐293 cells (HEK‐hTDO) (Homo sapiens, UniProt P48775); assay: Cell-based TDO assay, HEK‐hTDO cells (NFK Green)
# [3] = In vivo pharmacokinetics and brain penetration; conditions: for AUC: AUCplasma; for Cmax: plasma; for half-life: t½; for Kp uu: Kpuu (unbound brain‐to‐plasma partition coefficient)
# [4] = biological target: human IDO1‐overexpressing HEK‐293 cells (HEK‐hIDO1) (Homo sapiens, UniProt P14902); assay: Cell-based IDO1 assay, HEK‐hIDO1 cells (NFK Green); conditions: cell-based assay; read-out: Potency (IC50) HEK‐hIDO1 (converted)
# Method: Inhibition of Trp‐to‐NFK conversion in HEK‐hTDO, HEK‐hIDO1, and SW48 cells was measured with NFK Green, essentially as described previously for cancer cell lines. Cell density, incubation time, and Trp concentrations were optimized. For the TDO assay with HEK‐hTDO and SW48 cells, 200 µM Trp was added to the culture medium. No additional Trp was added for the IDO1 assay with HEK‐hIDO1 cells. The incubation time with compound was 42 h for the assays with HEK‐hTDO and HEK‐hIDO1 cells, and 18 h for the assay with SW48 cells.
# [5] = tested on: rotenone‐induced mouse model of PD; assay: Colon length in rotenone model; conditions: rotenone mice; highest dose (100 mg·kg^−1); P < 0.05
# recombinant hIDO1 = recombinant hIDO1 (Homo sapiens, UniProt P14902); assay: IDO1 biochemical assay (NFK Green)
# [6] = tested on: rotenone‐induced mouse model of PD; assay: α‐Synuclein immunofluorescent staining of colon in rotenone model; assay type: in vivo, male C57BL/6NCrl mice; conditions: rotenone mice; all doses: 25 mg·kg^−1, P < 0.05; 50 and 100 mg·kg^−1, P < 0.01
# Method: Parkinson’s disease is associated with the activation of glial cells in the enteric nervous system. Furthermore, aggregates of α‐synuclein have been observed in the enteric nervous system of PD patients. The expression of glial fibrillary acidic protein (GFAP), a marker of enteric glial cells, and of α‐synuclein was determined by immunofluorescent staining of fixed sections of the colons of the sacrificed mice.
# Expression of GFAP and α‐synuclein in colonic tissue was determined using confocal microscopy (Leica SP8). The colons of the mice were embedded in paraffin. Sections of 15 µm were cut and incubated with 0.3% (v/v) H2O2 for 30 min, rehydrated and incubated with citrate buffer. Following blocking with serum, the sections were incubated overnight with rabbit anti‐α‐synuclein (Millipore, cat. no. AB5038; Burlington, MA, USA) at a dilution of 1 : 1000, or rabbit anti‐GFAP (Dako, cat. no. Z0334), 1 : 1000. After incubation with Alexa® 488‐labeled donkey anti‐rabbit secondary antibody, the slides were mounted using Vectashield® medium for fluorescence with DAPI (Vector Laboratories, cat. no. H‐1000; Burlingame, CA, USA).
# Immunofluorescence images were made using a Keyence BZ‐9000 microscope. GFAP and α‐synuclein staining were quantified by calculation of the corrected total fluorescence (CTF) with the formula: integrated density – (area × mean fluorescence of background reading).
# [7] = tested on: any cell line used in this study; assay: Cell viability assay (ATPlite 1Step); conditions: in parallel with the cell‐based NFK Green assays
# Method: In parallel with the cell‐based NFK Green assays, the cytotoxicity of the compounds was determined in cell viability assays using ATPlite™ 1Step (PerkinElmer, Groningen, The Netherlands).
# [8] = biological target: T1, human MDR1 P-glycoprotein (ABCB1) (Homo sapiens, UniProt P08183); assay: Bi‐directional transport assay, MDCK‐MDR1 monolayer; assay type: in vitro ADME; conditions: dog; MDCK‐MDR1; Elacridar −
# T1 construct: host or cells: MDCK (canine kidney)
# Method: (§1) To determine whether NTRC 3531‐0 could potentially enter the brain, a bi‐directional transport assay was performed with Madin‐Darby canine kidney (MDCK) cells overexpressing the human ABCB1 gene‐encoded MDR1 P‐glycoprotein (MDCK‐MDR1) at Cyprotex (Macclesfield, UK). MDCK‐MDR1 cells form a confluent monolayer in Transwell® cell culture plates (Corning) and express active MDR1 P‐glycoprotein at the apical side. The cell model is a surrogate model of the brain capillary endothelial cell layer that constitutes the blood–brain barrier. The transport of NTRC 3531‐0 from the apical (A) to the basolateral (B) side of the monolayer (P app, A to B), and from basolateral (B) to apical (A) (P app, B to A), was determined by measuring compound levels in the two compartments of the Transwell plates by liquid chromatography–tandem mass spectrometry (LC‐MS/MS) (Table 2). Transport assays were performed in the absence and presence of the P‐glycoprotein inhibitor elacridar.
# [9] = biological target: T2, human MDR1 P‐glycoprotein‐overexpressing MDCK cells (Homo sapiens, UniProt P08183); assay: as above; assay type: in vitro ADME; conditions: MDCK‐MDR1, with and without elacridar
# T2 construct: host or cells: MDCK (canine kidney)
# Method: as §1
# [10] = tested on: rotenone‐induced mouse model of PD; assay: Spatial memory test in rotenone model; conditions: rotenone mice; 42 days after surgery; highest dose (100 mg·kg^−1); P < 0.001
# [11] = male, C57BL/6NCrl, mouse, in vivo, iv, 10 mg, mice, 10 mg∙kg^−1
# [12] = male, C57BL/6NCrl, mouse, in vivo, po, 100 mg
# [13] = male, C57BL/6NCrl, mouse, in vivo, po, 100 mg, mice, 5‐day p.o., 100 mg∙kg^−1
# [14] = male, C57BL/6NCrl, mouse, in vivo, po, 100 mg, mice, single p.o., 100 mg∙kg^−1
# T1 sequence (P08183 whole entry): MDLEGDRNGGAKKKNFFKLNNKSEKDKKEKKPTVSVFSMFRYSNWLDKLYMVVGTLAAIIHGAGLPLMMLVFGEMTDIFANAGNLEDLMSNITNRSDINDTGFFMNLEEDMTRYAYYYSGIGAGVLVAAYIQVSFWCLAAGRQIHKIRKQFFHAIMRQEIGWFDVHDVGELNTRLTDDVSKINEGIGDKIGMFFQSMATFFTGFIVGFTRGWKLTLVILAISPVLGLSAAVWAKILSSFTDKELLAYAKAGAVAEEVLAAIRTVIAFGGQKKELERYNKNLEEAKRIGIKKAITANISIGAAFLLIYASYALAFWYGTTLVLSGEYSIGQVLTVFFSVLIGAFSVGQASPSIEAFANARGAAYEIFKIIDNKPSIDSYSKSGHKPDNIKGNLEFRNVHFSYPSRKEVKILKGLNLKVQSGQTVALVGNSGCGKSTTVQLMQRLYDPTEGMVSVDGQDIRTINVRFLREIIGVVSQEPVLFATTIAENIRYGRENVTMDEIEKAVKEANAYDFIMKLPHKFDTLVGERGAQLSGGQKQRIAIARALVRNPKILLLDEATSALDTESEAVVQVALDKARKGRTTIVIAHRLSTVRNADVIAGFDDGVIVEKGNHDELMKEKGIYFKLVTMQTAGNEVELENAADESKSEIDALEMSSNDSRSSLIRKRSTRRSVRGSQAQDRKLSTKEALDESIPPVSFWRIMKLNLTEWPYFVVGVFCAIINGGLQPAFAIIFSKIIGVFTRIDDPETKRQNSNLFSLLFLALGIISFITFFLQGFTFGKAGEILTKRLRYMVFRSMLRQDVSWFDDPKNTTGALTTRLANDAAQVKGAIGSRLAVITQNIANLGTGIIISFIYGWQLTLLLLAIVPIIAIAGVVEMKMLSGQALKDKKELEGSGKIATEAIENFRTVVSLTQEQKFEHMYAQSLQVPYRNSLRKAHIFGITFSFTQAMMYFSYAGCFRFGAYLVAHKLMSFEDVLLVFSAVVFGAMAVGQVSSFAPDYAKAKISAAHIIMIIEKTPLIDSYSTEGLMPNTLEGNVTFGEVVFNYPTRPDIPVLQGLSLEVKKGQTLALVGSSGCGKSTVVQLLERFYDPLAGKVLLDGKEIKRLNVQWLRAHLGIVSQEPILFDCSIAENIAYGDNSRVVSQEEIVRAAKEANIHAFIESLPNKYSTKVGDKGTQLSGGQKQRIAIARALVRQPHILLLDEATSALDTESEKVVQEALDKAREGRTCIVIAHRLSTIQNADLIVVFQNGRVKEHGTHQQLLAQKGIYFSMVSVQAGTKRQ
# hTDO2‐overexpressing HEK‐293 cells (HEK‐hTDO), sequence (P48775 whole entry): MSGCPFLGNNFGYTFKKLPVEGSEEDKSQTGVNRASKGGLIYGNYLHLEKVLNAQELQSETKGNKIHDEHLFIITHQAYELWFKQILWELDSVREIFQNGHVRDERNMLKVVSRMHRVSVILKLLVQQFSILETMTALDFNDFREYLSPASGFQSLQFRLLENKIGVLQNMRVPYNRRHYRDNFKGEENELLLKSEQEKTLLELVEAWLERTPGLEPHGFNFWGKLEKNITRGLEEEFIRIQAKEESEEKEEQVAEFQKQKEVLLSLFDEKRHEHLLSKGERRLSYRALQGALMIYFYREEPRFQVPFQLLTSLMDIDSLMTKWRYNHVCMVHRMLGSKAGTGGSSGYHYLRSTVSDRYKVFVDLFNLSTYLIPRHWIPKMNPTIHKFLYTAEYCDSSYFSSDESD
# recombinant hIDO1, sequence (P14902 whole entry): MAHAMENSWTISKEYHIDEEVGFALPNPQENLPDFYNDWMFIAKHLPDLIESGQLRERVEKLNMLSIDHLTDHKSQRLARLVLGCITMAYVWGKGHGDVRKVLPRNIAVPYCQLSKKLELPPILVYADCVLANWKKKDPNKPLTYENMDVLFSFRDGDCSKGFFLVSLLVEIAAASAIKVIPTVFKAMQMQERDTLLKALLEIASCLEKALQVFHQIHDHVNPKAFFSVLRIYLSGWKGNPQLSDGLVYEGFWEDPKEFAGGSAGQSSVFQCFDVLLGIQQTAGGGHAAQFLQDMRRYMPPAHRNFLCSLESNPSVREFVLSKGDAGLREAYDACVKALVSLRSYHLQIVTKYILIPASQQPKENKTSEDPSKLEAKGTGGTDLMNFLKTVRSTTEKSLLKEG
# mouse TDO (mTDO), sequence (P48776 whole entry): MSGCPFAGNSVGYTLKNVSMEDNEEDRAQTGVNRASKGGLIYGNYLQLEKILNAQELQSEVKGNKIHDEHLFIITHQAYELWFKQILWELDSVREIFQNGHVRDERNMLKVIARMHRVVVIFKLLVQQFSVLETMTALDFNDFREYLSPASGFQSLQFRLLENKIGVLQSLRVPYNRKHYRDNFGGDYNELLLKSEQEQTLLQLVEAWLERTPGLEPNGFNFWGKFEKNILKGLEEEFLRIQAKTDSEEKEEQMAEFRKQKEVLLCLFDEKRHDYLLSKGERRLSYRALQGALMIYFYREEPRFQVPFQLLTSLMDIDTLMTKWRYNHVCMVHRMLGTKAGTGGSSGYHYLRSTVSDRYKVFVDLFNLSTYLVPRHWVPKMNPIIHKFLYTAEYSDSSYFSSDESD
# T2 sequence (P08183 whole entry): as the sequence (P08183 whole entry) above
# SW48 (hTDO), sequence (P48775 whole entry): as the sequence (P48775 whole entry) above
# human IDO1‐overexpressing HEK‐293 cells (HEK‐hIDO1), sequence (P14902 whole entry): as the sequence (P14902 whole entry) above
smiles,measurement,setting,value
C[C@@H](CO)NC(=O)c1ccc(-c2c[nH]c3cc(F)ccc23)cc1 [NTRC 3531‐0],IC50,mouse TDO (mTDO),846 nM
same,Kyn levels in plasma at early timepoints,"TDO activity in vivo; 0.25 and 0.5 h, no statistical significance",slightly decreased
same,"Kyn levels in plasma, subsequent timepoints","TDO activity in vivo; 1 and 2 h, P < 0.05",increased
same,concentration of Trp in plasma compared to vehicle,"TDO activity in vivo; 1 h P < 0.01, 2 h P < 0.0001, 7 h P < 0.01",increase
same,Kyn levels in brain,"TDO activity in vivo; 12 h P < 0.01, 24 h P < 0.05",increased
same,concentration of Trp in brain compared to vehicle,"TDO activity in vivo; P < 0.0001 at 1, 12 and 24 h",increase
same,IC50,SW48 (hTDO),220 nM
same,mean microglia volume in the SN of rotenone‐treated mice,[1],reduced the mean microglia volume
same,IC50,[2],816 nM
same,"selectivity for hTDO over hIDO1, HEK‐293 cell‐based assays",[2],at least 25 times
same,IC90,[2]; HEK293,2500 nM
same,bioavailability,"[3]; male, C57BL/6NCrl, mouse, in vivo, 100 mg/kg, F (oral bioavailability), mice, single p.o. 100 mg∙kg^−1 compared with single i.v. 10 mg∙kg^−1",22%
same,AUC,[3]; [11],93.2 µM·h
same,Cmax,[3]; [11],56.5 µM
same,half-life,[3]; [11],0.903 h
same,Kp,[3]; [12],0.41
same,Kp at 5 days,[3]; [12],0.37
same,AUC,[3]; [13],210 µM·h
same,AUC,[3]; [14],207 µM·h
same,Cmax,[3]; [13],33.2 µM
same,Cmax,[3]; [14],37.5 µM
same,Kp uu,[3]; [13],0.067
same,Kp uu,[3]; [14],0.074
same,half-life,[3]; [13],3.13 h
same,half-life,[3]; [14],2.49 h
same,AUCbrain,"[3]; mice, 5‐day p.o., 100 mg∙kg^−1",77.0 µM·h
same,F (oral bioavailability),"[3]; mice, single p.o. 100 mg∙kg^−1 compared with single i.v. 10 mg∙kg^−1",22.3%
same,AUCbrain,"[3]; mice, single p.o., 100 mg∙kg^−1",84.5 µM·h
same,IC50,[4],20700 nM
same,colon length (rotenone‐induced intestinal inflammatory response),[5],reduced the rotenone‐induced intestinal inflammatory response
same,activity on hIDO1 in the biochemical assay,recombinant hIDO1; highest tested concentration 31.6 µM,inactive
same,inhibition at 0.6 µM,recombinant hIDO1; read-out: inhibition hIDO1,< 20%
same,expression of α‐synuclein in the enteric plexus,[6],decrease in the expression of α‐synuclein
same,cytotoxicity,[7],not cytotoxic
same,Papp A→B,[8],15.7 ×10⁻⁶ cm/s
same,Papp B→A,[8],52 ×10⁻⁶ cm/s
same,efflux ratio,[8],3.32
same,P‐glycoprotein substrate status,[9],could be a weak substrate of P‐glycoprotein
same,rotenone‐induced spatial recognition loss,[10],significantly less rotenone‐induced spatial recognition loss
